Results as given in patent publication US6642228B1, “α1b-adrenergic receptor antagonists” (Toray Industries, Inc., priority 1999, dated 2003).
Structures can show the parent of a compound that is named as a salt.

Columns and labels:
α1A adrenoceptor = target: T1, α1A adrenoceptor (Rattus norvegicus, UniProt P43140); assay: Binding to α1A adrenoceptor, [3H] prazosin, rat submaxillary gland crude membrane preparation; conditions: 0.5 nM [3H] prazosin, 25° C., 30 minutes
T1 construct: a 43,000×g precipitation fraction was prepared from a rat submaxillary gland, and this was used as a crude membrane preparation; from tissue; host or cells: submaxillary gland of Sprague-Dawley male rat, crude membrane preparation
T1 sequence (P43140 1-466): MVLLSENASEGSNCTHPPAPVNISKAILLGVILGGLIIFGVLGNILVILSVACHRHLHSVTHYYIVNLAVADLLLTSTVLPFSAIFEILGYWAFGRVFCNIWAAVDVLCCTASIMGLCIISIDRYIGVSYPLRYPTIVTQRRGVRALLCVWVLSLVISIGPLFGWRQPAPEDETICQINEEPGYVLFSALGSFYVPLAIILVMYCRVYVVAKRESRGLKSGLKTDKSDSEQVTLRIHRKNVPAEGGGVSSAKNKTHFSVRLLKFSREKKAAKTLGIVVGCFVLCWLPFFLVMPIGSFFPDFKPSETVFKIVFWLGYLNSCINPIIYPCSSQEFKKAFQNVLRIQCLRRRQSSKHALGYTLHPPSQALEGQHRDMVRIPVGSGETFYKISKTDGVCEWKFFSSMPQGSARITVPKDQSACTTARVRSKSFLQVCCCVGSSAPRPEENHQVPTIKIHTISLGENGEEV
Method: All experiments were performed at temperatures between 0° C. and 4° C. As an α1A adrenoceptor preparation, a 43,000×g precipitation fraction was prepared from a rat submaxillary gland, and this was used as a crude membrane preparation in the experiment.
A Sprague-Dawley male rat was exsanguinated under ether anesthesia, and the submaxillary gland was isolated, was weighed and was cut to pieces with scissors. The cut gland was put into a Potter-Elvehjem type Teflon homogenizer, and was homogenized with 5 times by volume (5 mL per 1 g of the wet weight of the submaxillary gland) of a 50 mM Tris-HCl buffer (pH=7.4) containing 5 mM EDTA, 0.2 mM DTT, and 0.1 mM PMSF. The resulting homogenate was allowed to pass through a nylon mesh and was centrifuged at 800×g for 10 minutes, and the resulting supernatant was centrifuged at 43,000×g for 15 minutes. The precipitate was suspended in a 50 mM Tris-HCl buffer (pH=7.4) (Buffer A) containing 10 mM MgCl2, 0.2 mM DTT, and 0.1 mM PMSF and was then centrifuged at 43,000×g for 15 minutes. The resulting precipitate was suspended in Buffer A to a protein concentration of about 10 mg/mL, and the suspension was used as the crude membrane preparation.
(§1) Each of the crude membrane preparations was dispensed and was stored at −80° C. and was subjected to the experiment on use. The protein concentration was determined by Lowry method using bovine serum albumin as a standard.
(§2) Buffer A (400 μL) containing 0.5 nM [3H] prazosin and 200 μg crude membrane preparation was used as a standard reaction solution. The receptor preparation and [3H] prazosin were incubated at 25° C. for 30 minutes, and 2 mL of cold Buffer A was added to terminate the reaction. […] The same experimental procedure was performed in the presence of 10 μM phentolamine to thereby determine a nonspecific binding activity. A specific binding activity was calculated by subtracting the nonspecific binding activity from the total binding activity.
(§3) A solution ofa test drug was prepared by dissolving the test drug to 10 mM in distilled water, ethanol, or DMSO, and serially diluting the solution with distilled water.
(§4) Kd values and Bmax values were determined using Scatchard plots. Dissociation constant Ki (riM) of each compound was determined according to the following equation.
(§5) Ki=IC50/[1+(radioactive ligand concentration/Kd)]

α1B adrenoceptor = target: T2, α1B adrenoceptor (Rattus norvegicus, UniProt P15823); assay: Binding to α1B adrenoceptor, [3H] prazosin, rat liver crude membrane preparation; conditions: 0.5 nM [3H] prazosin, 25° C., 30 minutes
T2 construct: a 100,000×g precipitation fraction was prepared from a rat liver and this was used as a crude membrane preparation; from tissue; host or cells: liver of Sprague-Dawley male rat, crude membrane preparation
T2 sequence (P15823 1-515): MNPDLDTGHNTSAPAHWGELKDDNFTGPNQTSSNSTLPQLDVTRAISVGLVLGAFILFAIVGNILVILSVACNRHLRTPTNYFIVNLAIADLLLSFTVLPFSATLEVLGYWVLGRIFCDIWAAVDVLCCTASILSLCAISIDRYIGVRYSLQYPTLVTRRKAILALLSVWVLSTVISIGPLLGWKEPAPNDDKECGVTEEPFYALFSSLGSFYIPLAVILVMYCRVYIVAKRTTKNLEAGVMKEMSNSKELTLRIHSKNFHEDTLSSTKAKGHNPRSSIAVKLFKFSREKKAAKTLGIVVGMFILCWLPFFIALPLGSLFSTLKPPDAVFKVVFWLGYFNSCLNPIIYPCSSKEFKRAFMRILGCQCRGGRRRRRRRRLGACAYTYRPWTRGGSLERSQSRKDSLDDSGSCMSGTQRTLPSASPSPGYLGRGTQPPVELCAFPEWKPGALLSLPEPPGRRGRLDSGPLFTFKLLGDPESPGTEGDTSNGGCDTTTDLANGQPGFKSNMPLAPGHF
Method: As an α1B adrenoceptor preparation, a 100,000×g precipitation fraction was prepared from a rat liver and this was used as a crude membrane preparation in the experiment.
A Sprague-Dawley male rat was exsanguinated under ether anesthesia, and the liver was isolated, was weighed and was cut into pieces with scissors. The cut liver was put into a Potter-Elvehjem type Teflon homogenizer, and was homogenized with 9 times by volume (9 mL per 1 g of the wet weight of the liver) of a 50 mM Tris-HCl buffer (pH 7.4) containing 0.25 M sucrose, 10 mM MgCl2, 1 mM EDTA, 0.2 mM DTT, and 0.1 mM PMSF. The homogenate was centrifuged at 800×g for 10 minutes, and the resulting supernatant was centrifuged at 100,000×g for 10 minutes, and the supernatant was then further centrifuged at 100,000×g for 60 minutes. The precipitate obtained by centrifugation was suspended in a 50 mM Tris-HCl buffer (pH=7.4) (Buffer A) containing 10 mM MgCl2, 0.2 mM DTT, and 0.1 mM PMSF to a protein concentration of about 10 mg/mL, and the suspension was used as the crude membrane preparation.
as §1, §2, §3, §4, §5

[1] = tested on: vasopressor response induced by phenylephrine (an α1 adrenoceptor agonist); assay: Inhibitory activity against vasopressor response induced by phenylephrine in rats under anesthesia; format: in vivo, rat; conditions: continuous i.v. infusion, 15 minutes after administration, phenylephrine 3 μg/kg, mean ± standard error
Method: The inhibitory activity of the α1B adrenoceptor antagonist according to Example 23 against vasopressor response induced by phenylephrine (an α1 adrenoceptor agonist) in rats under anesthesia was studied. […] The compound was dissolved in physiological saline, and was infused into the femoral vein at a rate of 20 μl/kg/min. Phenylephrine was dissolved in physiological saline and was bolus injected at a dose of 0.2 ml/kg (3 μg/kg). The inhibition rate was calculated according to the following equation.
Inhibition rate (7)=[1—(pressure increase induced by phenylephrine 15 minutes after administration of the example compound)/(pressure increase induced by phenylephrine before administration of the example compound)]×100

| Structure (SMILES) | Ki (α1A adrenoceptor) [nM] | Ki (α1B adrenoceptor) [nM] | Inhibition rate ([1]; dose 0.1 mg/kg/min) [%] | Inhibition rate ([1]; dose 0.3 mg/kg/min) [%] | Inhibition rate ([1]; dose 1 mg/kg/min) [%] | Inhibition rate ([1]; dose 3 mg/kg/min) [%] |
| --- | --- | --- | --- | --- | --- | --- |
| c1ccc2c(c1)CN(CCCN1CCC(c3c[nH]c4ccccc34)CC1)C2 [Example 14, 3-(1-(3-Isoindolin-2-ylpropyl)-4-piperidyl)indole Hydrochloride] | 50 | 3.6 | – | – | – | – |
| c1ccc2c(c1)CN(CCCCN1CCC(c3c[nH]c4ccccc34)CC1)C2 [Example 15, 3-(1-(4-Isoindolin-2-ylbutyl)-4-piperidyl)indole Hydrochloride] | 30 | 1.4 | – | – | – | – |
| c1ccc2c(c1)CN(CCCCCN1CCC(c3c[nH]c4ccccc34)CC1)C2 [Example 16, 3-(1-(5-Isoindolin-2-ylpentyl)-4-piperidyl)indole] | 82 | 1.6 | – | – | – | – |
| c1ccc(C2CCN(CCCN3CCC(c4ccccc4)CC3)CC2)cc1 [Reference Example 21, 4-Phenyl-1-(3-(4-phenylpiperidyl)propyl)piperidine Hydrochloride, reference compound] | 870 | 860 | – | – | – | – |

Stronger by Ki (α1A adrenoceptor), values ahead:

| Ki (α1A adrenoceptor) [nM] | Ki (α1B adrenoceptor) [nM] | Structure (SMILES) | Inhibition rate ([1]; dose 0.1 mg/kg/min) [%] | Inhibition rate ([1]; dose 0.3 mg/kg/min) [%] | Inhibition rate ([1]; dose 1 mg/kg/min) [%] | Inhibition rate ([1]; dose 3 mg/kg/min) [%] |
| --- | --- | --- | --- | --- | --- | --- |
| 21 | 0.63 | Fc1ccc2c(C3CCN(CCCN4CCCCC4)CC3)c[nH]c2c1 [Example 21, 6-Fluoro-3-(1i-(3-Piperidylpropyl)-4-piperidyl)indole Hydrochloride] | – | – | – | – |
| 18 | 0.79 | Fc1ccc2c(C3CCN(CCCN4Cc5ccccc5C4)CC3)c[nH]c2c1 [Example 23, 6-Fluoro-3-(1-(3-Isoindolin-2-ylpropyl)-4-piperidyl)indole Hydrochloride] | 24 ± 5 | 47 ± 5 | 72 ± 5 | 86 ± 2 |
